# According to patent publication US20250213601A1 (priority 2022, published 2025):
# “And” between values parts separate entries of the source, which are not always exact repeats. Identical values can stand only once.
# What was measured:
# [1] = Ivermectin concentration in the blood plasma of cattle after oral administration; format: in vivo; conditions: oral 600 μg/kg (per pure IVM)
# Protocol: Cattle were divided into 2 groups of 1 animals each. Free Ivermectin (IVM) and compound of FORMULA I were orally administered to starving cattle. Blood samples were withdrawn from the jugular vein at appropriate time intervals after administration (0, 4, 20 h).
# Fluorescence detection was set at an excitation and emission wavelength of 365 and 475 nm, respectively. The mobile phase consisted of acetonitrile, methanol and distilled water (50:45:5, v/v/v), running through the column at a flow rate of 1.5 ml/minute. The chromatographic analysis was operated at 25° C. Sample preparation (100 μl plasma) was done by a single stepprotein precipitation with acetonitrile, followed by derivatization with 100 μl of N-methylimidazole solution in acetonitrile (1:1, v/v) and 150 μl of trifluoroacetic anhydrous solution in acetonitrile (1:2, v/v). Calibration curve over the concentration range of 20-8,000 ng/ml plasma was linear with correlation coefficient better than 0.995.
# All the blood samples were centrifuged at 3000 rpm for 15 min to obtain […]. Cattle plasma samples (100 μL each) were placed in 1.5 mL Eppendorf tubes, and then the samples underwent protein precipitation. The samples were vortexed for 1 min and centrifuged at 13,400 rpm for 10 min 20 μL of the supernatant was injected into the HPLC.
# Syrian hamsters = assay: Oral toxicity of solid dispersion; format: in vivo; conditions: per pure ivermectin, FORMULA I compound per Example 1 No 2 (apple pectin 1:5)
# SARS-CoV-2 = conditions: in vitro, inhibition of replication; cited from earlier work
# [2] = system: Influenza VLPs (avian influenza A); conditions: 10 μM; cited from earlier work
# Dengue virus (NGC) = conditions: cited from earlier work
# Dengue virus (EDEN-2) = conditions: cited from earlier work
# Dengue virus (EDEN-3) = conditions: cited from earlier work
# Dengue virus (EDEN-4) = conditions: cited from earlier work
# West Nile virus (NY99) = conditions: cited from earlier work
# West Nile virus (MRM61C) = conditions: cited from earlier work
# [3] = system: Zika virus (Asian/Cook Islands); conditions: cited from earlier work
# [4] = system: Hendra (Hendra virus/Australia/Horse); conditions: estimated; read-out: est. EC50; cited from earlier work
# Adenovirus (HAdV-C5) = conditions: cited from earlier work
# Pseudorabies virus = conditions: estimated; read-out: est. EC50; cited from earlier work
# [5] = standard tablet form, for 5 days; cited from earlier work
# Caco-2 cell line = assay: Permeability through a monolayer of Caco-2 cells; conditions: bottom of Transwell well, 3 μM (per pure IVM) in HBSS on top
smiles,measurement,setting,value
"CCC(C)C1OC2(CCC1C)CC1CC(CC=C(C)C(OC3CC(OC)C(OC4CC(OC)C(O)C(C)O4)C(C)O3)C(C)C=CC=C3COC4C(O)C(C)=CC(C(=O)O1)C34O)O2 (centres unmarked) [ivermectin, Ivermectin]","C1, 0 h (ivermectin concentration in plasma)","[1]; 0 h, FORMULA I compound per Example 1 No 1 (polyvinylpyrrolidone 1:10), IVM = milled free ivermectin",0 ± 0.15 ng/mL
same,"C2, 4 h (ivermectin concentration in plasma)","[1]; 4 h, FORMULA I compound per Example 1 No 1",307.3 ± 46.1 ng/mL
same,"C3, 20 h (ivermectin concentration in plasma)","[1]; 20 h, FORMULA I compound per Example 1 No 1",104.4 ± 15.6 ng/mL
same,Cmax,[1]; FORMULA I compound per Example 1 No 1,0.35 ± 0.05 µM
same,LD50,Syrian hamsters,62 mg/kg
same,EC50,SARS-CoV-2,2.4 µM and 2.2 µM and 2.8 µM
same,EC90,SARS-CoV-2,5 µM
same,Inhibition,[2],10 μM total inhibition
same,Inhibition,Dengue virus (NGC); 50 μM,total inhibition
same,EC50,Dengue virus (NGC),0.4 µM and 0.6 µM
same,EC50,Dengue virus (EDEN-2),2.1 µM and 1.7 µM
same,EC50,Dengue virus (EDEN-3),1.7 µM
same,EC50,Dengue virus (EDEN-4),1.9 µM
same,EC50,West Nile virus (NY99),4 µM
same,EC50,West Nile virus (MRM61C),1 µM and 0.5 µM
same,EC50,[3],1.3 µM and 1.6 µM
same,EC50,[4],~2 µM
same,EC50,Adenovirus (HAdV-C5),2.5 µM
same,EC50,Pseudorabies virus,~0.8 µM
same,lung Cmax,[5],0.4 to 0.9 µM
same,Concentrartion of IVM,"Caco-2 cell line; 20 min, FORMULA I compound per Example 1 No 2 (apple pectin 1:5)",0.05 µg/mL
same,Concentrartion of IVM,"Caco-2 cell line; 40 min, FORMULA I compound per Example 1 No 2",0.09 µg/mL
same,Concentrartion of IVM,"Caco-2 cell line; 60 min, FORMULA I compound per Example 1 No 2",0.15 µg/mL
same,Concentrartion of IVM,"Caco-2 cell line; 80 min, FORMULA I compound per Example 1 No 2",0.19 µg/mL
same,Concentrartion of IVM,"Caco-2 cell line; 100 min, FORMULA I compound per Example 1 No 2",0.21 µg/mL
same,Concentrartion of IVM,"Caco-2 cell line; 120 min, FORMULA I compound per Example 1 No 2",0.25 µg/mL
